The subject of one experiment is uPAR protein. The experiment is described as follows: Western blot analysis of uPAR protein in MDA-MB-231 breast carcinoma cells. It is filed as cell-based, human. Here is the method:
Following incubations, the cells were lysed using a buffer containing 40 mM HEPES pH 7.2, 100 mM NaCl, 20% glycerol, 0.1 mM EDTA pH 8.0, 0.2% Triton X-100, 1 mM DTT, and 2 mM PMSF. The lysates were then subjected to homogenization, DNA shearing (10 times with a 25⅝-gauge needle), boiling (5 minutes) and centrifugation (15 minutes, 14000 g). The supernatant was collected and stored at −80° C. until use. The samples were subjected to SDS-polyacrylamide gel electrophoresis (PAGE) and the resolved proteins were transferred to an Immobilon-P membrane using a wet transfer apparatus (Bio-Rad Laboratories, Mississauga, ON). The membranes were blocked overnight at 4° C. in a solution containing 1% PBS, and 0.01% Tween20 (PBS-T) as well as 5% casein. The blots were subsequently incubated for 1.5 hours with the monoclonal anti-uPAR antibody [MoAb 3937], followed by six 5 minute washes with PBS-T. The membranes were then incubated with a horseradish peroxidase labeled goat anti-mouse IgG secondary antibody for 1.5 hours. Following six additional 5 minute washes with PBS-T, the antigen was detected by enhanced chemiluminescence and the blots were exposed onto Dupont Reflection NEF film.
Following incubation, the cells were lysed using a buffer containing 40 mM HEPES pH 7.2, 100 mM NaCl, 20% glycerol, 0.1 mM EDTA pH 8.0, 0.2% Triton X-100, 1 mM dithiothreitol (DTT), and 2 mM phenylmethyl sulfonyl fluoride (PMSF). The lysates were then subjected to homogenization, DNA shearing (10 times with a 25⅝-gauge needle), boiling (5 minutes) and centrifugation (15 minutes at 14,000×g). The supernatant was collected and stored at −80° C. until use. The samples were subjected to SDS-polyacrylamide gel electrophoresis (PAGE) and the resolved proteins were transferred to an Immobilon-P membrane (Millipore Corp., Bedford, Mass.) using a wet transfer apparatus (BioRad Laboratories, Mississauga, ON). The membranes were blocked overnight at 4° C. in a solution containing 1% PBS, and 0.01% Tween 20 (PBS-T) as well as 5% dry milk powder. The blots were subsequently incubated for 1.5 hours with the monoclonal anti-uPAR (MoAb 3937; American Diagnostica Inc., Greenwich, Conn.), or a polyclonal soluble guanylate cyclase (sGC) antiserum (Cayman Chemical, Ann Arbor, Mich.) followed by six 5-minute washes with PBS-T. Subsequently, the uPAR membranes were incubated for 1 hour with a horseradish peroxidase labelled goat anti-mouse IgG secondary antibody (Bio-Rad, Hercules, Calif.) and the sGC membranes were incubated for 1 hour with a goat anti-rabbit IgG horseradish peroxidase conjugate (VECTOR Laboratories Inc., Burlingame, Calif.). Following six additional 5-minute washes with PBS-T, the antigen was detected by enhanced chemiluminescence (Amersham Canada Inc., Mississauga, ON) and the blots were exposed onto Dupont Reflection NEF film.
In general terms: A western blot detects proteins with antibodies after separation by electrophoresis.

The subject of experiment [1] is soluble guanylyl cyclase (sGC) / cellular cGMP. The experiment is described as follows: cGMP ELISA (sGC activity) in MDA-MB-231 cells. Type of experiment: cell-based, human. Here is the method:
The effects of hypoxia and NO-mimetic treatment on sGC levels were determined using Western Blot analysis. To determine sGC activity, cGMP levels were measured. Briefly, cells were extracted over ice in 1 mL of 6% trichloroacetic acid (BDH Laboratory Supplies, Poole, England). The homogenate was then centrifuged at 13,000 g for 10 min. The supernatant fraction was removed and extracted five times with 2 mL of water-saturated diethyl ether (BDH). The cGMP contained in this fraction was subsequently acetylated and quantitated using an enzyme-linked immuno-sorbent assay (ELISA) kit (STI—Signal Transduction Products, San Clemente, Calif.).
To determine the effect of hypoxia on cGMP levels, MDA-MB-231 breast carcinoma cells were incubated in 0.5% O2 for 6 hours in the presence of IBMX (500 μM).
(ELISA stands for enzyme-linked immunosorbent assay.)

A further experiment has as its system uPAR mRNA. The experiment is described as follows: Northern blot analysis of uPAR mRNA in MDA-MB-231 breast carcinoma cells. Type of experiment: cell-based, human.
Experiment [2] deals with MDA-MB-231 breast carcinoma spheroids. The experiment is described as follows: Clonogenic survival of MDA-MB-231 spheroids after doxorubicin. It is filed as cell-based, human. As to the method: Following initial cell plating, spheroids formed for 24, 48, 72, 96 or 120 h. At each time point, spheroids were exposed to 200 μM of doxorubicin, then disaggregated and plated for assessment of colony formation (survival).
Spheroids were allowed to form for 72 h. DETA/NO was applied for the final 24 h of spheroid formation. Spheroids were then exposed to doxorubicin for 1 h, prior to disaggregation and plating for assessment of survival by clonogenic assay.
Using human MDA-MB-231 breast carcinoma cells in clonogenic assays, survival was determined following doxorubicin exposure and NO mimetic administration to both monolayer and spheroid cultures.

A further experiment deals with HIF-1. The experiment is described as follows: HIF-1 accumulation and transactivating activity. It is filed as cell-based. The note with it: high concentrations (0.1-1 mM); preliminary studies. An excerpt:
The promotor region of uPAR contains binding sites for transcription factors such as activator protein-1 (AP-1), Sp-1/3 and nuclear factor κB (NFκB).

[3] abbreviates: combination of L-NMMA (0.5 mM) and GTN (0.1 nM), 20% O2.

As for `O=[N+]([O-])OCC(CO[N+](=O)[O-])O[N+](=O)[O-]` [GTN, glyceryl trinitrate], in the experiment with uPAR protein (setting [3]), the “uPAR protein levels vs 20% O2 alone” value is “no significant increase”. Besides, in the experiment on uPAR protein (single doses GTN 1 pM, 1 nM and 0.1 μM, 24 hours 0.5% oxygen), the “hypoxic upregulation of uPAR protein expression” value is “prevent the upregulation”. The “effect on hypoxic reduction of sGC activity (cGMP ELISA)” value in experiment [1] (0.5% O2, 2 hours, GTN (10^−10 M, 10^−6 M)) was “significantly prevented”. Besides, the “effect of hypoxia on accumulated cGMP levels” value in experiment [1] (GTN 1 μM co-incubation, 0.5% O2 6 hours, IBMX 500 μM) is “prevented”. Further, the “effect on hypoxic reduction in cGMP levels” value in experiment [1] (GTN (1 mM) as printed, 6 hrs 0.5% O2, IBMX) is on record as “completely prevented”. In addition, the “effect of DFO on uPAR mRNA expression” value with uPAR mRNA (1 μM of GTN) was “not prevented”. Besides, the “uPAR mRNA levels vs untreated hypoxic cells” value with uPAR mRNA (1% O2, SNP 10^−12 M, GTN 10^−11 M and 10^−10 M) was “significantly reduced”. In the experiment with uPAR mRNA (GTN 1 μM), the “hypoxic upregulation of uPAR mRNA expression” value is recorded as “prevented”. Further, the “effect of hypoxia on uPAR mRNA when ODQ also present” value with uPAR mRNA (GTN 1 μM with ODQ 0.5 μM) was “unable to block”. For the same molecule, in the experiment on uPAR mRNA (GTN (10^−10 M, 10^−6 M)), the “inhibition of DFO (100 μM)-induced upregulation of uPAR” value is “could not be inhibited”. In addition, the “hypoxia-mediated increase in uPAR mRNA levels” value in the experiment with uPAR mRNA (GTN (a pM) as printed) is given as “inhibited”. Moreover, the “uPAR transcript levels vs 20% O2 alone” value in the experiment with uPAR mRNA (setting [3]) is given as “no significant increase”. The “survival of control (doxorubicin-untreated) cells” value in experiment [2] (DETA 0.1 mM and 2 μM, GTN 0.1 nM and 1 μM) is “did not affect the survival”. Also, the “attenuation of resistance to 200 μM doxorubicin associated with 3D culture” value in experiment [2] (spheroids) was found to be 30%. The “HIF-1 accumulation and transactivating activity” value in the experiment with HIF-1 was “inhibit HIF-1 accumulation and transactivating activity”.

For the origin of these results see patent publication US8168232B2, “Formulations and methods of using nitric oxide mimetics in cancer treatment” (priority 2000, dated 2012).
